Data from ChEMBL document CHEMBL1201862, “PubChem BioAssay data set” (2004).
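Exposure lasted 48 hours, with cells grown in 96-well plates and compounds tested at five concentrations. At the GI50, growth is halved.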 Active and inactive are the calls of the source. No stated cut-off is given here; in the data, active = GI50 up to about 1.1 µM and inactive = higher.

Columns and labels:
Experiment in all cases: NCI anticancer screen, dose series, 48 h
CCRF-CEM = test system: CCRF-CEM
DU-145 = test system: DU-145
HCT-116 = test system: HCT-116
HCT-15 = test system: HCT-15
IGROV-1 = test system: IGROV-1
K562 = test system: K562
KM12 = test system: KM12
MDA-MB-435 = test system: MDA-MB-435
NCI/ADR-RES = test system: NCI/ADR-RES
OVCAR-5 = test system: OVCAR-5
OVCAR-8 = test system: OVCAR-8
RPMI-8226 = test system: RPMI-8226
SK-MEL-2 = test system: SK-MEL-2
SK-MEL-5 = test system: SK-MEL-5
SN12C = test system: SN12C
SNB-19 = test system: SNB-19
SR = test system: SR
SW-620 = test system: SW-620
Malme-3M = test system: Malme-3M

Row | Compound | GI50 (CCRF-CEM) | GI50 (DU-145) | GI50 (HCT-116) | GI50 (HCT-15) [µM] | GI50 (IGROV-1) | GI50 (K562) | GI50 (KM12) | GI50 (MDA-MB-435) | GI50 (NCI/ADR-RES) | GI50 (OVCAR-5) | GI50 (OVCAR-8) | GI50 (RPMI-8226) | GI50 (SK-MEL-2) | GI50 (SK-MEL-5) | GI50 (SN12C) | GI50 (SNB-19) | GI50 (SR) | GI50 (SW-620) | GI50 (Malme-3M)
1 | COc1ccc(C2c3cc4c(cc3OC(N3CCCCC3)C2C)OCO4)cc1 (centres undefined) | > 100 µM (inactive) | > 100 µM (inactive) | > 100 µM (inactive) | > 100 | > 100 µM (inactive) | > 100 µM (inactive) | > 100 µM (inactive) | 27 µM (inactive) | > 100 µM (inactive) | > 100 µM (inactive) | > 100 µM (inactive) | > 100 µM (inactive) | > 100 µM (inactive) | > 100 µM (inactive) | > 100 µM (inactive) | > 100 µM (inactive) | > 100 µM (inactive) | > 100 µM (inactive) | –
2 | CC(=O)c1ccccc1NC(=O)C(=O)C(C(=O)c1ccccc1-c1ccccc1)C1OC(=O)c2ccccc21 (centres undefined) | 25.1 µM (inactive) | – | 17.8 µM (inactive) | 19.7 | 22.2 µM (inactive) | 25.3 µM (inactive) | 18 µM (inactive) | – | – | 29.2 µM (inactive) | 19.1 µM (inactive) | 27.3 µM (inactive) | 17.2 µM (inactive) | 19.1 µM (inactive) | 17.1 µM (inactive) | 22.1 µM (inactive) | 21.6 µM (inactive) | 34.3 µM (inactive) | 15.5 µM (inactive)
3 | CCCCCCCCCCCC(=O)OCCOCCOCCOCCOCCOCc1ccccc1 | > 100 µM (inactive) | – | > 100 µM (inactive) | > 100 | > 100 µM (inactive) | > 100 µM (inactive) | > 100 µM (inactive) | – | – | > 100 µM (inactive) | > 100 µM (inactive) | > 100 µM (inactive) | > 100 µM (inactive) | > 100 µM (inactive) | > 100 µM (inactive) | > 100 µM (inactive) | > 100 µM (inactive) | > 100 µM (inactive) | > 100 µM (inactive)
4 | Cc1c(Cl)ccc2c1NC(=O)C2(O)C(C(=O)c1ccccc1)c1ccccc1 (centres undefined) | 14.7 µM (inactive) | – | 75.9 µM (inactive) | 45.7 | > 100 µM (inactive) | 31.1 µM (inactive) | 55.3 µM (inactive) | – | – | 32.7 µM (inactive) | 69.7 µM (inactive) | 25.9 µM (inactive) | > 100 µM (inactive) | 23.3 µM (inactive) | 76.6 µM (inactive) | 62.8 µM (inactive) | 27.3 µM (inactive) | 42.4 µM (inactive) | 93.3 µM (inactive)
5 | COc1c(C)n(CCO)ccc1=O | > 100 µM (inactive) | – | > 100 µM (inactive) | > 100 | – | > 100 µM (inactive) | > 100 µM (inactive) | – | – | > 100 µM (inactive) | > 100 µM (inactive) | > 100 µM (inactive) | > 100 µM (inactive) | > 100 µM (inactive) | > 100 µM (inactive) | > 100 µM (inactive) | > 100 µM (inactive) | > 100 µM (inactive) | > 100 µM (inactive)
6 | Cc1ccc(NC(=O)C(=O)Cc2cccc[n+]2[O-])cc1C | > 100 µM (inactive) | – | > 100 µM (inactive) | > 100 | > 100 µM (inactive) | > 100 µM (inactive) | > 100 µM (inactive) | – | – | > 100 µM (inactive) | > 100 µM (inactive) | > 100 µM (inactive) | > 100 µM (inactive) | > 100 µM (inactive) | > 100 µM (inactive) | > 100 µM (inactive) | > 100 µM (inactive) | > 100 µM (inactive) | > 100 µM (inactive)
7 | Cc1ccc(NC(=O)CCCC(=O)CC(=O)c2ccc(Br)cc2)cc1 | > 100 µM (inactive) | – | > 100 µM (inactive) | > 100 | > 100 µM (inactive) | > 100 µM (inactive) | > 100 µM (inactive) | – | – | > 100 µM (inactive) | > 100 µM (inactive) | > 100 µM (inactive) | > 100 µM (inactive) | > 100 µM (inactive) | > 100 µM (inactive) | > 100 µM (inactive) | > 100 µM (inactive) | > 100 µM (inactive) | > 100 µM (inactive)
8 | C=CCc1ccc(Oc2cc(CC=C)c3c(c2O)O[C@@H](CO)[C@H]3c2ccc(O)c(-c3cc(CC=C)ccc3O)c2)cc1 | 20.5 µM (inactive) | – | 61.9 µM (inactive) | 30.2 | 32.7 µM (inactive) | 37.6 µM (inactive) | 35.3 µM (inactive) | – | – | > 100 µM (inactive) | 41.7 µM (inactive) | 32.5 µM (inactive) | 24.3 µM (inactive) | 87.3 µM (inactive) | 41.9 µM (inactive) | 39.5 µM (inactive) | 12.4 µM (inactive) | 33.9 µM (inactive) | > 100 µM (inactive)
9 | CC(=O)NC1C(OCc2ccccc2)OC(CO)C(O)C1OCC(=O)NC(C)C(=O)NC(CCC(=O)OCCNC(=O)c1cccc2cc3ccccc3nc12)C(N)=O (centres undefined) | – | 11.3 µM (inactive) | 10.4 µM (inactive) | 13.9 | 17.8 µM (inactive) | 39.1 µM (inactive) | 21.9 µM (inactive) | 17.2 µM (inactive) | 21.6 µM (inactive) | 22.1 µM (inactive) | 18 µM (inactive) | 1.33 µM (inactive) | 26.4 µM (inactive) | 17 µM (inactive) | 22.3 µM (inactive) | 31.4 µM (inactive) | 8.22 µM (inactive) | 25.2 µM (inactive) | 15.6 µM (inactive)
10 | Brc1ccc(C[P+]2(c3ccccc3)CCCCC2)cc1.[O-][Cl+3]([O-])([O-])[O-] | 82 µM (inactive) | – | 68.7 µM (inactive) | > 100 | 81.3 µM (inactive) | 77.4 µM (inactive) | 56.1 µM (inactive) | – | – | > 100 µM (inactive) | 95.1 µM (inactive) | 25.8 µM (inactive) | 33.7 µM (inactive) | 17.5 µM (inactive) | > 100 µM (inactive) | 61.4 µM (inactive) | 38.1 µM (inactive) | 79.1 µM (inactive) | 58.5 µM (inactive)
11 | N#CCCN(c1ccc(/C=N/c2ccc(C(=O)O)cc2)cc1)S(=O)(=O)c1ccccc1 | > 100 µM (inactive) | – | > 100 µM (inactive) | > 100 | > 100 µM (inactive) | > 100 µM (inactive) | > 100 µM (inactive) | – | – | > 100 µM (inactive) | > 100 µM (inactive) | > 100 µM (inactive) | > 100 µM (inactive) | > 100 µM (inactive) | > 100 µM (inactive) | > 100 µM (inactive) | > 100 µM (inactive) | > 100 µM (inactive) | > 100 µM (inactive)
12 | CCOC(=O)/N=c1/nc(N(C)C)ss1 | > 100 µM (inactive) | – | > 100 µM (inactive) | > 100 | > 100 µM (inactive) | > 100 µM (inactive) | > 100 µM (inactive) | – | – | > 100 µM (inactive) | > 100 µM (inactive) | > 100 µM (inactive) | > 100 µM (inactive) | > 100 µM (inactive) | > 100 µM (inactive) | > 100 µM (inactive) | > 100 µM (inactive) | > 100 µM (inactive) | > 100 µM (inactive)
13 | c1cnc2c(c1)-n1cccc1C1(CCSCC1)NN2 | > 100 µM (inactive) | – | > 100 µM (inactive) | 80.2 | – | 89.5 µM (inactive) | > 100 µM (inactive) | – | – | > 100 µM (inactive) | > 100 µM (inactive) | > 100 µM (inactive) | > 100 µM (inactive) | > 100 µM (inactive) | > 100 µM (inactive) | > 100 µM (inactive) | 61.8 µM (inactive) | > 100 µM (inactive) | > 100 µM (inactive)
14 | CC(=O)Nc1ccc(S(=O)(=O)N/N=C(\C)CN2C(=O)c3ccccc3C2=O)cc1 | > 100 µM (inactive) | – | > 100 µM (inactive) | > 100 | > 100 µM (inactive) | > 100 µM (inactive) | > 100 µM (inactive) | – | – | > 100 µM (inactive) | > 100 µM (inactive) | > 100 µM (inactive) | > 100 µM (inactive) | > 100 µM (inactive) | 55.2 µM (inactive) | > 100 µM (inactive) | > 100 µM (inactive) | > 100 µM (inactive) | > 100 µM (inactive)
15 | C1CCCCC2(CCCCCCCCC3(CCC1)OCCO3)OCCO2 | – | > 100 µM (inactive) | > 100 µM (inactive) | > 100 | > 100 µM (inactive) | > 100 µM (inactive) | > 100 µM (inactive) | > 100 µM (inactive) | > 100 µM (inactive) | > 100 µM (inactive) | > 100 µM (inactive) | – | > 100 µM (inactive) | > 100 µM (inactive) | > 100 µM (inactive) | > 100 µM (inactive) | > 100 µM (inactive) | > 100 µM (inactive) | > 100 µM (inactive)
16 | CC(C)C(=O)NC(=S)Nc1ccc([N+](=O)[O-])cc1C#N | > 100 µM (inactive) | – | > 100 µM (inactive) | > 100 | > 100 µM (inactive) | > 100 µM (inactive) | > 100 µM (inactive) | – | – | > 100 µM (inactive) | > 100 µM (inactive) | > 100 µM (inactive) | > 100 µM (inactive) | > 100 µM (inactive) | 22 µM (inactive) | > 100 µM (inactive) | > 100 µM (inactive) | > 100 µM (inactive) | > 100 µM (inactive)
17 | CCOC1c2cc(C(C)C)c(O)c(O)c2[C@@]23CCCC(C)(C)C2C1OC3=O (some centres undefined) | 47.4 µM (inactive) | – | > 100 µM (inactive) | 91 | > 100 µM (inactive) | > 100 µM (inactive) | – | – | – | > 100 µM (inactive) | > 100 µM (inactive) | 40.6 µM (inactive) | > 100 µM (inactive) | 70.3 µM (inactive) | 94 µM (inactive) | > 100 µM (inactive) | 61.4 µM (inactive) | > 100 µM (inactive) | > 100 µM (inactive)
